Here are results for 21 compounds from patent publication US5703129A, “5-amino-6-cyclohexyl-4-hydroxy-hexanamide derivatives as inhibitors of β-amyloid protein production” (Bristol-Myers Squibb Company, priority 1996, dated 1997).

Counter-ions that a name gives are not always drawn.

This assay addresses T1, γ-Secretase (Homo sapiens, UniProt P49768).
T1 construct: transfected H4 (human neuroglioma) cells stably expressing constructs containing wild-type and mutant forms of β-APP; endogenous in cells; host or cells: H4 human neuroglioma cells, stably transfected with beta-APP (the substrate, not the enzyme)
As to the kind of experiment: Inhibition of γ-secretase: ELISA of β-AP made by transfected H4 cells in culture. In kind it is cell-based. The settings on record: H4 (human neuroglioma) cells expressing β-APP (Swedish variant typically), approximately 16 hours incubation, β-AP in conditioned medium by ELISA. An excerpt:
Production and detection of β-AP made by cells in culture. The use of transfected H4 (human neuroglioma) cells stably expressing constructs containing wild-type and mutant forms of β-APP have been used to identify inhibitors of β-AP production. The Swedish variant of β-APP produces 5-7 fold more β-AP than the wild type and is typically used due to its enhanced signal. […] The capture antibody is typically a mouse monoclonal (IgG1/kβ-APPa). The antibody recognizes the carboxyl terminal epitope of β-AP. The specificity of the capture antibody ensures measurement of β-AP without interference by other secreted β-APP fragments that share amino acid sequence (β-AP1-16) with β-AP. The detecting antibody is typically an affinity purified rabbit polyclonal antibody, specific for the amino terminus of β-AP. In the cell-based assay conditioned medium from H4 cells is tested by ELISA for the quantity of β-AP present. The cell-based assay can be used to identify compounds that inhibit β-AP production. The assay should detect agents that inhibit cleavage at the β-secretase and/or the γ-secretase cleavage site as well as detecting any agent that interferes with the production and/or release of β-AP.
A typical ELISA-based assay requires plating of the transfected cells at a density sufficient for the rapid detection of the secreted β-AP (experimentally predetermined for a particular stable cell population) in a 96-well format. Cells are plated for at least six hours prior to the introduction of the test compound at which time the growth medium is replaced by fresh medium containing the agent to be tested. Test agents may typically consist of synthetic compounds, secondary metabolites from bacterial or fungal fermentation extracts, or extracts from plant or marine samples. All synthetic agents are initially screened at doses ranging from 10-100 μM or in the case of extracts at sufficient dilution to minimize cytotoxicity. Incubation of the cells with the test agent will continue for approximately 16 hours at which time equal aliquots of media from each sample well is removed and placed into a previously prepared ELISA plate for β-AP quantitation. The ELISA is carried out in a manner described by others (Haass, et al., 1992; Hawlow and Lane, 1988) and the β-AP signal quantitated. Results are obtained by analysis of the ELISA plate following development and comparison to the mock treated cell populations and samples in which known amounts of β-AP were added to construct a standard concentration curve. […] If a compound is found to be active, then a dose response experiment is performed to determine the lowest dose of compound necessary to elicit the inhibition of the production of β-AP.
(An ELISA detects its analyte on a solid surface through an enzyme-linked reagent.)
`CCCCNC(=O)[C@H](C)C[C@H](O)[C@H](CC1CCCCC1)NCCCC(C)C` (relative stereo) [Example 19, [αS-(αR*,γR*,δR*)]N-Butyl-γ-hydroxy-α-methyl-δ-[(4-methylpentyl)amino]cyclohexanehexanamide hydrochloride]: the “Activity Rating (Inhibition of γ-Secretase)” value is recorded as “+++ (+++ < = 10)”. With `CCCCNC(=O)[C@@H](C[C@H](O)[C@H](CC1CCCCC1)NCCCC(C)C)C(C)C` (relative stereo) [Example 20, [αS-(αR*,γR*,δR*)]N-Butyl-γ-hydroxy-α-(1-methylethyl)-δ-[(4-methylpentyl)amino]cyclohexanehexanamide hydrochloride] the entry was “+++ (+++ < = 10)”; with `C=C(C)C[C@H](C[C@H](O)[C@H](CC1CCCCC1)NCCCC(C)C)C(=O)NCCCC` (relative stereo) [Example 21, [αS-(αR*,γR*,δR*)]N-Butyl-γ-hydroxy-α-(2-methyl-2-propenyl)-δ-[(4-methylpentyl)amino]cyclohexanehexanamide hydrochloride], “+++ (+++ < = 10)”; with `CCCCNC(=O)[C@H](CC(C)C)C[C@H](O)[C@H](CC1CCCCC1)NCCCC(C)C` (relative stereo) [Example 22, [αS-(αR*,γR*,δR*)]N-Butyl-γ-hydroxy-δ-[(4-methylpentyl)amino]-α-(2-methylpropyl)cyclohexanehexanamide hydrochloride], “+++ (+++ < = 10)”. Turning to `C=CC[C@H](C[C@H](O)[C@H](CC1CCCCC1)NCCCC(C)C)C(=O)NCCCC` (relative stereo) [Example 23, [αS-(αR*,γR*,δR*)]N-Butyl-γ-hydroxy-δ-[(4-methylpentyl)amino]-α-(2-propenyl)cyclohexanehexanamide hydrochloride], the “Activity Rating (Inhibition of γ-Secretase)” value is recorded as “+++ (+++ < = 10)”.

Regarding `CCCCNC(=O)[C@H](Cc1ccccc1)C[C@H](O)[C@H](CC1CCCCC1)NCCCC(C)C` (relative stereo) [Example 25, [αS-(αR*,γR*,δR*)]N-Butyl-γ-hydroxy-δ-[(4-methylpentyl)amino]-α-(phenylmethyl)cyclohexanehexanamide hydrochloride], the “Activity Rating (Inhibition of γ-Secretase)” value is reported as “+++ (+++ < = 10)”. With `CCCCNC(=O)[C@H](CC1CCCCC1)C[C@H](O)[C@H](CC1CCCCC1)NCCCC(C)C` (relative stereo) [Example 26, [αS-(αR*,γR*,δR*)]-N-Butyl-α-(cyclohexylmethyl)-γ-hydroxy-δ-[(4-methylpentyl)amino]cyclohexanehexanamide, hydrochloride] the entry was “+++ (+++ < = 10)”. As to `CC(C)CCCN[C@@H](CC1CCCCC1)[C@@H](O)C[C@H](C(=O)N[C@H](C)c1ccccc1)C(C)C` (relative stereo) [Example 28, [αS-(αR*,γR*,δR*,N-(1S*))]γ-hydroxy-α-(1-methylethyl)-δ-[(4-methylpentyl)amino]-N-(1-phenylethyl)cyclohexanehexanamide hydrochloride], the “Activity Rating (Inhibition of γ-Secretase)” value is given as “+++ (+++ < = 10)”.

For `CC(C)CCCN[C@@H](CC1CCCCC1)[C@@H](O)C[C@H](C(=O)NCCc1ccccc1)C(C)C` (relative stereo) [Example 29, [αS-(αR*,γR*,δR*)]γ-hydroxy-α-(1-methylethyl)-δ-[(4-methylpentyl)amino]-N-(2-phenylethyl)cyclohexanehexanamide hydrochloride], the “Activity Rating (Inhibition of γ-Secretase)” value is “+++ (+++ < = 10)”.

Take `CC(C)CCCN[C@@H](CC1CCCCC1)[C@@H](O)C[C@H](C(=O)NCC(C)C)C(C)C` (relative stereo) [Example 30, [αS-(αR*,γR*,δR*)]γ-hydroxy-α-(1-methylethyl)-δ-[(4-methylpentyl)amino]-N-(2-methylpropyl)cyclohexanehexanamide hydrochloride]: the “Activity Rating (Inhibition of γ-Secretase)” value was “+++ (+++ < = 10)”. The result for `CC(C)CCCN[C@@H](CC1CCCCC1)[C@@H](O)C[C@H](C(=O)NCC(C)(C)C)C(C)C` (relative stereo) [Example 31, [αS-(αR*,γR*,δR*)]N-(2,2-dimethylpropyl)-γ-hydroxy-α-(1-methylethyl)-δ-[(4-methylpentyl)amino]cyclohexanehexanamide hydrochloride] reads “+++ (+++ < = 10)”; that for `CSCCCNC(=O)[C@@H](C[C@H](O)[C@H](CC1CCCCC1)NCCCC(C)C)C(C)C` (relative stereo) [Example 32, [αS-(αR*,γR*,δR*)]γ-hydroxy-α-(1-methylethyl)-δ-[(4-methylpentyl)amino]-N-[3-(methylthio)propyl]cyclohexanehexanamide hydrochloride], “+++ (+++ < = 10)”. In the case of `CCCCNC(=O)[C@@H](C[C@H](O)[C@H](CC1CCCCC1)NCCC(C)CC)C(C)C` (relative stereo) [Example 33, [αS-(αR*,γR*,δR*)]N-Butyl-γ-hydroxy-α-(1-methylethyl)-δ-[(3-methylpentyl)amino]cyclohexanehexanamide hydrochloride], the “Activity Rating (Inhibition of γ-Secretase)” value was “+++ (+++ < = 10)”. The result for `CCCCNC(=O)[C@@H](C[C@H](O)[C@H](CC1CCCCC1)NCCCCC(C)C)C(C)C` (relative stereo) [Example 34, [αS-(αR*,γR*,δR*)]N-Butyl-γ-hydroxy-α-(1-methylethyl)-δ-[(5-methylhexyl)amino]cyclohexanehexanamide hydrochloride] reads “+++ (+++ < = 10)”; that for `CCCCNC(=O)[C@@H](C[C@H](O)[C@H](CC1CCCCC1)NCCC(C)C)C(C)C` (relative stereo) [Example 35, [αS-(αR*,γR*,δR*)]N-Butyl-γ-hydroxy-δ-[(3-methylbutyl)amino]-α-(1-methylethyl)cyclohexanehexanamide hydrochloride], “+++ (+++ < = 10)”; that for `CCCCNC(=O)[C@@H](C[C@H](O)[C@H](CC1CCCCC1)NCc1cccc(C)c1)C(C)C` (relative stereo) [Example 36, [αS-(αR*,γR*,δR*)]N-Butyl-γ-hydroxy-α-(1-methylethyl)-δ-[[(3-methylphenyl)methyl]amino]cyclohexanehexanamidehydrochloride], “+++ (+++ < = 10)”. The result for `CCCCNC(=O)[C@@H](C[C@H](O)[C@H](CC1CCCCC1)NCc1cccc(OC)c1)C(C)C` (relative stereo) [Example 37, [αS-(αR*,γR*,δR*)]N-Butyl-γ-hydroxy-δ-[[(3-methoxyphenyl)methyl]amino]-α-(1-methylethyl)cyclohexanehexanamide hydrochloride] reads “++ (++ > 10 & < = 25)”; that for `CCCCNC(=O)[C@@H](C[C@H](O)[C@H](CC1CCCCC1)NCc1ccc2ccccc2c1)C(C)C` (relative stereo) [Example 38, [αS-(αR*,γR*,δR*)]N-Butyl-γ-hydroxy-α-(1-methylethyl)-δ-[[(2-naphthyl)methyl]amino]cyclohexanehexanamide hydrochloride], “+ (+ > 25 & < = 50 μM)”; that for `CCCCNC(=O)[C@@H](C[C@H](O)[C@H](CC1CCCCC1)NCCOC(C)C)C(C)C` (relative stereo) [Example 39, [αS-(αR*,γR*,δR*)]N-Butyl-γ-hydroxy-δ-[2-(1-methylethoxy)ethyl]amino]-α-(1-methylethyl)cyclohexanehexanamidehydrochloride], “+ (+ > 25 & < = 50 μM)”. `CC(C)CNC(=O)[C@@H](C[C@H](O)[C@H](CC1CCCCC1)NC1CCC(C)CC1)C(C)C` (relative stereo) [Example 40, [αS(αR*,γR*,δR*)]-γ-Hydroxy-δ-[(4-methylcyclohexyl)amino]-α-(1-methylethyl)-N-(2-methylpropyl)cyclohexanehexanamide]: the “Activity Rating (Inhibition of γ-Secretase)” value is “+++ (+++ < = 10)”. For `CC(C)CCC(C)N[C@@H](CC1CCCCC1)[C@@H](O)C[C@H](C(=O)NCC(C)C)C(C)C` (relative stereo) [Example 41, [αS(αR*,γR*,δR*)]-γ-Hydroxy-δ-[(1,4-dimethylpentyl)amino]-α-(1-methylethyl)-N-(2-methylpropyl)cyclohexanehexanamide hydrochloride], the “Activity Rating (Inhibition of γ-Secretase)” value is recorded as “+++ (+++ < = 10)”.
